The test system of experiment [1] is Mast/stem cell growth factor receptor Kit (Homo sapiens), P10721 [D816V]. The experiment is described as follows: (§1) Selectivity interaction (KinomeScan (DiscoverX)) EUB0001079a KIT. As to conditions: at 1 µM.
For experiment [2], the target named is Mast/stem cell growth factor receptor Kit (Homo sapiens, UniProt P10721). The experiment is described as §1. As to conditions: at 1 µM.
Experiment [3] relates to Mast/stem cell growth factor receptor Kit (Homo sapiens), P10721 [L576P]. The description is as §1. To be noted: at 1 µM.
Mast/stem cell growth factor receptor Kit (Homo sapiens), P10721 [L576P], sequence (P10721 whole entry L576P): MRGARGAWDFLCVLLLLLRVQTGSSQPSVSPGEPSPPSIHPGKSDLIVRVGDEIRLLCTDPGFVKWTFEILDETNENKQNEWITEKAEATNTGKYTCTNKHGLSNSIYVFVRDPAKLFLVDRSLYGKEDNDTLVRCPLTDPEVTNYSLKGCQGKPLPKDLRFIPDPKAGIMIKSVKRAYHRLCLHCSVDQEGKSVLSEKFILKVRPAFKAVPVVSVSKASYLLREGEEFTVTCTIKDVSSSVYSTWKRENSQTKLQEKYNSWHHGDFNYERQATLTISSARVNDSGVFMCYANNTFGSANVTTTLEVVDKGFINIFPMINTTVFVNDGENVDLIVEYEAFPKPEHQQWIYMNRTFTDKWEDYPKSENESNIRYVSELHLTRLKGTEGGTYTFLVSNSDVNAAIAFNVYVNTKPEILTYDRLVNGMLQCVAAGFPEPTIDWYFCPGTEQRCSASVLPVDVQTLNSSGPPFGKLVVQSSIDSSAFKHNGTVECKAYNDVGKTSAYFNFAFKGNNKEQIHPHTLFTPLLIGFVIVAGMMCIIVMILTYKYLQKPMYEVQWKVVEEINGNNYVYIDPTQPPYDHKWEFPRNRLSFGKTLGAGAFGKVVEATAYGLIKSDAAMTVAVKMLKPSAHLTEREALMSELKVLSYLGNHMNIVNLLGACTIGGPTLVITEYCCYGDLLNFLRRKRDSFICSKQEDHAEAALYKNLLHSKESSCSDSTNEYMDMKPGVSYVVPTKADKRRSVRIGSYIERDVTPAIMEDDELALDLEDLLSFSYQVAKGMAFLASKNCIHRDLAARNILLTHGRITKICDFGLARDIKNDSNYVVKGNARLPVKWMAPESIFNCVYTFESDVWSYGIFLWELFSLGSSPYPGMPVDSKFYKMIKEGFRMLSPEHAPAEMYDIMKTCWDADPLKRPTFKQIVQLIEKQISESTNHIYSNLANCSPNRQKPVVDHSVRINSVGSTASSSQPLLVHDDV
Experiment [4] concerns Mast/stem cell growth factor receptor Kit (Homo sapiens), P10721 [V559D]. The description is as §1. As to conditions: at 1 µM.
Mast/stem cell growth factor receptor Kit (Homo sapiens), P10721 [V559D], sequence (P10721 whole entry V559D): as the sequence (P10721 whole entry L576P) above, with V559D, P576L counted along it
The subject of experiment [5] is Mast/stem cell growth factor receptor Kit (Homo sapiens), P10721 [V559D,T670I]. The description is as §1. To be noted: at 1 µM.
The subject of experiment [6] is Mast/stem cell growth factor receptor Kit (Homo sapiens), P10721 [D816H]. The experiment is described as §1. To be noted: at 1 µM.
The test system of experiment [7] is Mast/stem cell growth factor receptor Kit (Homo sapiens), P10721 [A829P]. The description is as §1. As to conditions: at 1 µM.
Mast/stem cell growth factor receptor Kit (Homo sapiens), P10721 [A829P], sequence (P10721 whole entry A829P): as the sequence (P10721 whole entry L576P) above, with P576L, A829P counted along it
In experiment [8] the test system is Mast/stem cell growth factor receptor Kit (Homo sapiens), P10721 [V559D,V654A]. The experiment is described as §1. As to conditions: at 1 µM.
Mast/stem cell growth factor receptor Kit (Homo sapiens), P10721 [V559D,V654A], sequence (P10721 whole entry V559D/V654A): as the sequence (P10721 whole entry L576P) above, with V559D, P576L, V654A counted along it
Experiment [9] addresses T1, Muscle, skeletal receptor tyrosine-protein kinase (Homo sapiens) (UniProt O15146).
T1 sequence (whole entry): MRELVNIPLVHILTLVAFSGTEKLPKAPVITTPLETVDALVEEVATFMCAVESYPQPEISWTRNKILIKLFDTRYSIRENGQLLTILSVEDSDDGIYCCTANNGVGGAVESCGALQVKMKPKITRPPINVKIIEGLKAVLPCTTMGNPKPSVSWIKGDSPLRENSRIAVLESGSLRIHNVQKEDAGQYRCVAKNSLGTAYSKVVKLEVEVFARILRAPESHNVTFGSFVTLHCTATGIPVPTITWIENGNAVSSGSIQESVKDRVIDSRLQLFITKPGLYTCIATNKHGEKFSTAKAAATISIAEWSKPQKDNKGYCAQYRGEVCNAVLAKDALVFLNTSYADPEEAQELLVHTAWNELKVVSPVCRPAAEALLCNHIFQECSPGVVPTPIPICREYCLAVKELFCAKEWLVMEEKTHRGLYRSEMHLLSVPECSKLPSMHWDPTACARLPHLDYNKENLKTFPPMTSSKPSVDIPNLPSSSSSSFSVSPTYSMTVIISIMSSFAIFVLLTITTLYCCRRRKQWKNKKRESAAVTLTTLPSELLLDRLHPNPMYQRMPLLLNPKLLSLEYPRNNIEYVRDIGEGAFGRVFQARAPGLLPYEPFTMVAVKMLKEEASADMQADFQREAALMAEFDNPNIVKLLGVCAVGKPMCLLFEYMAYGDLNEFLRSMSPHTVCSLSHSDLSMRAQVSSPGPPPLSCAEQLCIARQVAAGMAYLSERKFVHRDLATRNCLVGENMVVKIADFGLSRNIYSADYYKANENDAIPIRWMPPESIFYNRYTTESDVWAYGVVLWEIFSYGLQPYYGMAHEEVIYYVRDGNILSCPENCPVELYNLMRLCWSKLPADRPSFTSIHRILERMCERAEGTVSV
The experiment in a line: Selectivity interaction (KinomeScan (DiscoverX)) EUB0001049a MUSK. To be noted: at 1 µM.

Experiment [10] addresses T2, Dual serine/threonine and tyrosine protein kinase (Homo sapiens) (UniProt Q6XUX3).
T2 sequence (whole entry): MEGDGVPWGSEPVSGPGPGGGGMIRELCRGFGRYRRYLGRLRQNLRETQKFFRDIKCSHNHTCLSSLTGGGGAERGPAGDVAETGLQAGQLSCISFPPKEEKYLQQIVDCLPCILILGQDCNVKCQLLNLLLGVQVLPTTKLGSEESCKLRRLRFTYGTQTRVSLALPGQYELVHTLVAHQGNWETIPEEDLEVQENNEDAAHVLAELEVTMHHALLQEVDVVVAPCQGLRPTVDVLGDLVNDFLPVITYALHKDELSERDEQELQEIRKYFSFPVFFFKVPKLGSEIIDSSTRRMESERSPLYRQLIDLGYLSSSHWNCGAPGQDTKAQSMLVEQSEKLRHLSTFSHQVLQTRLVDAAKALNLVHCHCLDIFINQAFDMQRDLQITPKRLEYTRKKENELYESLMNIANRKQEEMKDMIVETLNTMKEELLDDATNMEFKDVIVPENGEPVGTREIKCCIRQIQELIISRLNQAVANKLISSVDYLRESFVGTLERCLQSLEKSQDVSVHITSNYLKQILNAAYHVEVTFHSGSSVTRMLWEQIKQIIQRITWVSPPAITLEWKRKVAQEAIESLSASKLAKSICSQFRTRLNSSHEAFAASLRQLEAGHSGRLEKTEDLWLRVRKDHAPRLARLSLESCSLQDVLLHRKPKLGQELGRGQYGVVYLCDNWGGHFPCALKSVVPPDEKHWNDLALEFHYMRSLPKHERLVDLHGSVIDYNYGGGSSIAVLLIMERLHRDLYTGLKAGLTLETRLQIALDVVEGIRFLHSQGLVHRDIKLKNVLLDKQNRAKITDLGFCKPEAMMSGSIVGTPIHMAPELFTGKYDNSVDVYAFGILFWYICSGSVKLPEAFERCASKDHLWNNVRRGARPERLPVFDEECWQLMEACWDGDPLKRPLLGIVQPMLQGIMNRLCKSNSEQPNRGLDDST
The experiment in a line: Selectivity interaction (KinomeScan (DiscoverX)) EUB0000655a DSTYK. To be noted: at 10 µM.

Experiment [11] addresses T3, Testis-specific serine/threonine-protein kinase 1 (Homo sapiens) (UniProt Q9BXA7).
T3 sequence (whole entry): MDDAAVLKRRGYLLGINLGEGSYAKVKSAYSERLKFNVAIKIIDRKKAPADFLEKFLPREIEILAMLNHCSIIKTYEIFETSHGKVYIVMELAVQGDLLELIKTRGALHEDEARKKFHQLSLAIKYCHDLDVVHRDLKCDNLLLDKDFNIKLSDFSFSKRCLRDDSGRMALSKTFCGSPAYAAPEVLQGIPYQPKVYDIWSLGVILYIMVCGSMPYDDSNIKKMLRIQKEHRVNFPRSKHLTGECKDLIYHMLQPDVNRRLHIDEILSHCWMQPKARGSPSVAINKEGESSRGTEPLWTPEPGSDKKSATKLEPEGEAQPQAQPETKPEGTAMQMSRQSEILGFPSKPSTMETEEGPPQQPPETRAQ
The experiment is described as follows: Selectivity interaction (KinomeScan (DiscoverX)) EUB0001619a TSSK1B. To be noted: at 1 µM.

Mast/stem cell growth factor receptor Kit (Homo sapiens), P10721 [D816H], sequence (P10721 whole entry D816H): as the sequence (P10721 whole entry L576P) above, with P576L, D816H counted along it
Mast/stem cell growth factor receptor Kit (Homo sapiens), P10721 [V559D,T670I], sequence (P10721 whole entry V559D/T670I): as the sequence (P10721 whole entry L576P) above, with V559D, P576L, T670I counted along it
Mast/stem cell growth factor receptor Kit, sequence (P10721 whole entry): as the sequence (P10721 whole entry L576P) above, with P576L counted along it
Mast/stem cell growth factor receptor Kit (Homo sapiens), P10721 [D816V], sequence (P10721 whole entry D816V): as the sequence (P10721 whole entry L576P) above, with P576L, D816V counted along it

Take `Nc1cnc(N2CCc3cc(S(=O)(=O)Nc4c(F)cc(Cl)cc4F)cc(N4CCCC4=O)c32)nc1` [TP-020n]: the % of control was 100% in experiment [1]; 100% in [2]; 83% in [3]; 100% in experiment [4]; 100% in experiment [5]; 100% in experiment [6]. For the same compound, the % of control in experiment [7] and in experiment [8] was 100% in each case.

In [9], `COc1cc(Nc2nc(C)cc(-c3cnn4nc(OC)ccc34)n2)cc(C(F)(F)F)c1` showed a % of control of 100%.

As for `CN(C)CCOc1ccc(-c2nc(-c3ccncc3)c(-c3ccc4c(c3)CC/C4=N\O)[nH]2)cc1`, in experiment [10], the % of control was found to be 83%.

For `N#Cc1cccc(-c2c[nH]c3ncnc(N4CCOCC4)c23)c1`, the % of control in [11] amounted to 75%.

Values taken from ChEMBL document CHEMBL5465560, “Selectivity Literature for EUbOPEN Chemogenomic Library” (2024).
